Results: article PMC3352927, “Development and Validation of an Automated High-Throughput System for Zebrafish In Vivo Screenings” (PLoS ONE, 2012)
“Also recorded” adds a separate entry of the source. Where a name gives a salt, the structure may show the parent alone. Read-outs that look alike come from different tables or passages of the source.

Experiments:
humans = settings: known effects in humans; cited from earlier work
48 hpf zebrafish embryos = settings: for Cardiotoxic effect in zebrafish: blind screened between 1 and 200 µM, predominant effect
From the text: The image analysis program for the Cardiotoxicity assay was based on the processing of the videos to obtain a periodic signal of the cardiac motion automatically and independent to the embryo position.
The detection of the heart beat frequency was based on the frequency spectrum analysis of the Euclidean Distance (ED) signal (built as the ED between the frames of the video referred to a reference frame calculated with the mean values of intensity for homogeneous zones). Obtaining the periodogram using the Discrete Fourier Transform (DFT), and modifying it to avoid undesired effects, the heart beat frequency was given by its first significant frequency (Figure 3 A).
For embryos with arrhythmia (A), the sinusoidal course of the ED signal was disrupted due to the irregular beating of the heart, i.e. the different beating frequency of each chamber. The classification of the arrhythmia cases was therefore based on the number of significant frequencies detected in the DFT of the ED signal (Figure 3 B).
Embryos at 48 hpf were automatically dispensed in a 96 well plate discarding exterior columns and rows and volume was leveled to 50µl with E3. Compounds were prepared 200 times concentrated in DMSO. A 1∶100 dilution was automatically made from the stock and 50 µl were added to each embryo to reach the final concentration. […] Embryos that moved during video recording were discarded. […] One video per embryo from a minimum of 10 embryos in each treated group were necessary for statistical analysis.

zebrafish embryos [1] = assay: Automated angiogenesis assay (ISV formation), Flk1:copGFP embryos treated at 22-26 hpf, read at 48 hpf; format: in vivo; settings: for IC50: manually quantified; for Angiog. inhibition: presence or absence of an anti-angiogenic effect, 0.01-100 µM; for Anti-angiogenic phenotype (ISVs / DLAV): treated at 24 hpf, checked at 48 hpf; for Efective concentration (minimum concentration that showed an effect): given when IC50 could not be calculated
From the text: In the angiogenesis assay, the fluorescent images taken were processed using AxioVision 4.6.3 and a macro was developed to quantify an indirect measure of the area of the ISVs. […] However, we usually include a manual counting to offer a more detailed measurement of effect.
In the automatic analysis of angiogenesis, it is first necessary to perform a sequence of automated filtering functions on the image to extract information, define the region of interest (ROI), that in this case is the part of the tail containing the ISVs, and allow the measurement of the embryo length. Recovering a previous image, new filtering functions are applied to the ROI. A gradient image containing the ISVs, the DLAV (Dorsal Longitudinal Anastomotic Vessel), the PCV and the DA is created. Next, fluorescent areas that should not be quantified are discarded. Finally, only the areas comprised between the ISVs, the DLAV and the PCV or the DA are measured (Figure 4). In that way, when the vessels are incomplete or the DLAV is not present, an enclosed area is not present and therefore not measured.
The means obtained from the treated embryos were compared with the control mean. When statistically significant differences were detected a deeper analysis was done manually. In this case the parameters quantified were:
• The total number of ISVs present in the trunk of the embryos (from where the largest bulge of the yolk ends to the end of the tail). • Number of complete ISVs (reached the dorsal part of the embryo and formed the DLAV).
A curve of six concentrations (0.01, 0.1, 1, 10, 30 and 100 µM) was performed for all of them. […] IC50 was calculated when a clear dose-dependent anti-angiogenesis effect was detected. Otherwise, the minimum dose at which the inhibition of angiogenesis was observed is shown (Table 4).
At this time, chorions were removed with protease from Streptomyces griseus (Sigma-Aldrich) (1.5 mg/ml for 6 minutes) and the embryos were sorted and dispensed 1 per well in a 96 well assay plate. Each experimental condition was tested in a row with ten embryos. Embryos were dispensed in an average final volume of 90 µl of E3 media. 90 µl of the test items (DMSO and positive control KRN633 included) previously diluted 100 times were dispensed into each well of the assay plate containing the embryos to get the final volume of 180 µl and the desired final concentration.
The microscope scanned the wells by columns and a bright field image and a fluorescent image (2.5×magnification) were acquired per well. Then, the image analysis was performed and the result file generated.
Statistical analysis and graphical representation of the data were performed using SSPS (Statistical Package for the Social Sciences) software and Prism (Graph Pad Software) for IC50 calculations (non linear regression, sigmoidal dose-response with variable slope). […] In the angiogenesis assay, for comparisons between two groups, two-tailed t-test was used assuming unequal variances. For comparisons between more than two groups one-way analysis of variance followed by Dunnett’s post-test was applied to compare each data point with vehicle control.

zebrafish embryos [2] = assay: Embryo analysis at 72 hpf (blood circulation and ISVs development); format: in vivo; settings: 72 hpf
Protocol: Embryos from the Flk1:copGFP line were treated with the indicated compounds at 22–23 hpf in 500 µl of E3 in p24 well plates (5 embryos per well). After 48 hours of treatment embryos were anesthetized with 10 µl Tricaine (final concentration 0.02%) and analyzed for the presence of blood circulation and ISVs development using a Leica M205 FA stereoscope equipped with a Hamamatsu C10600 camera.

[3] = Danio rerio, read-out: IC50 C.V. (complete number of vessels)
[4] = Danio rerio, read-out: IC50 T.V. (total number of vessels)
[5] = read-out: IC50 C.V. (complete number of vessels)
[6] = read-out: IC50 T.V. (total number of vessels)

SMILES	Cardiac effect in humans (humans)	Angiog. inhibition (zebrafish embryos [1])	also measured
CCS(=O)(=O)N(C)[C@H]1c2cc(C#N)ccc2OC(C)(C)[C@@H]1O (racemic) [Chromanol 293b]	QT-prolong.		Cardiotoxic effect in zebrafish (48 hpf zebrafish embryos): No effect
COc1cc2c(cc1O)CC[C@@H]1[C@@H]2CC[C@]2(C)[C@@H](O)CC[C@@H]12 [2-Methoxyestradiol]		Yes	IC50 (zebrafish embryos [1]; [3]): 10.2 µM; IC50 (zebrafish embryos [1]; [4]): 30.6 µM; Anti-angiogenic phenotype (ISVs / DLAV) (zebrafish embryos [1]): the formation of ISVs was perturbed with defective or total absence of sprouting
Cc1cn[nH]c1.Cl [4-Methylpyrazole hydrochloride]		No	
COc1cc2ncnc(Nc3cccc(Cl)c3)c2cc1OC [AG1478]		Yes	IC50 (zebrafish embryos [1]; [5]): 13 µM; IC50 (zebrafish embryos [1]; [6]): 22.8 µM; Anti-angiogenic phenotype (ISVs / DLAV) (zebrafish embryos [1]): the formation of ISVs was perturbed with defective or total absence of sprouting; also recorded: lower number of incomplete ISVs
COc1cc2ncc(-c3ccccc3)nc2cc1OC [AG-1296]		Yes	Efective concentration (minimum concentration that showed an effect) (zebrafish embryos [1]): 20 µM; Anti-angiogenic phenotype (ISVs / DLAV) (zebrafish embryos [1]): moderate effect that did not increase with higher doses; Anti-angiogenic phenotype (ISVs / DLAV) (zebrafish embryos [1]; listed as AG1296): inhibit proper development of the DLAV; also recorded: thinner ISVs rather than incomplete vessel formation; Blood circulation (zebrafish embryos [2]): impaired blood circulation; ISVs appearance (zebrafish embryos [2]): thinner ISVs that were disrupted in some cases
CC(N)=O [Acetamide]		No	
CCCCc1oc2ccccc2c1C(=O)c1cc(I)c(OCCN(CC)CC)c(I)c1 [Amiodarone hydrochloride]		No	
CCCCc1oc2ccccc2c1C(=O)c1cc(I)c(OCCN(CC)CC)c(I)c1 [Amiodarone]	QT-prolong.		
COc1ccc(CCN2CCC(Nc3nc4ccccc4n3Cc3ccc(F)cc3)CC2)cc1 [Astemizole]	QT-prolong.		
CC(C)C[C@H](NC(=O)[C@@H](O)[C@H](N)Cc1ccccc1)C(=O)O [Bestatin]		No	
COc1cc(N)c(Cl)cc1C(=O)NC1CCN(CCCOc2ccc(F)cc2)CC1OC (stereo not drawn) [Cisapride]	QT-prolong.		
C[C@H]1O[C@@H](O[C@H]2[C@@H](O)C[C@H](O[C@H]3[C@@H](O)C[C@H](O[C@H]4CC[C@@]5(C)[C@H](CC[C@@H]6[C@@H]5CC[C@]5(C)[C@@H](C7=CC(=O)OC7)CC[C@]65O)C4)O[C@@H]3C)O[C@@H]2C)C[C@H](O)[C@@H]1O [Digitoxin]			Predominant observed effect (48 hpf zebrafish embryos; 48 hpf zebrafish embryos, 5 µM): N; Cardiotoxic effect in zebrafish (48 hpf zebrafish embryos): Cardiac arrest
COc1cccc2c1C(=O)c1c(O)c3c(c(O)c1C2=O)C[C@@](O)(C(=O)CO)C[C@@H]3O[C@H]1C[C@H](N)[C@H](O)[C@H](C)O1 [Doxorrubicin]	No effect		
CC(C)C[C@H](NC(=O)[C@H]1O[C@@H]1C(=O)O)C(=O)NCCCCN=C(N)N [E64]		No	
CNCCC(Oc1ccc(C(F)(F)F)cc1)c1ccccc1 (stereo not drawn) [Fluoxetine]	Arrhythmia		
O=C(O)P(=O)(O)O [Foscarnet]	Bradycardia		Cardiotoxic effect in zebrafish (48 hpf zebrafish embryos): Bradycardia
CO[C@@H]1[C@H](OC(=O)/C=C/C=C/C=C/C=C/C(=O)O)CC[C@]2(CO2)[C@H]1[C@@]1(C)O[C@@H]1CC=C(C)C [Fumagillin]		not detected and No	
COC(=O)c1ccc(O)c(NC(=O)COc2ccc(C34CC5CC(CC(C5)C3)C4)cc2)c1 [HIF-1 Inhibitor]		No	Angiog. inhibition (zebrafish embryos [1]; listed as Hif-1 inhibitor): not detected
O=C1Nc2ccccc2/C1=C1/Nc2ccccc2/C1=N\O [Indirubin-3̀-oxime]		Yes	IC50 (zebrafish embryos [1]; [5]): 4.2 µM; IC50 (zebrafish embryos [1]; [6]): 18.3 µM; Anti-angiogenic phenotype (ISVs / DLAV) (zebrafish embryos [1]): the formation of ISVs was perturbed with defective or total absence of sprouting
CCCNC(=O)Nc1ccc(Oc2ncnc3cc(OC)c(OC)cc23)cc1Cl [KRN633]		Yes	IC50 (zebrafish embryos [1]; [3]): 0.026 µM; IC50 (zebrafish embryos [1]; [4]): 0.035 µM; Anti-angiogenic phenotype (ISVs / DLAV) (zebrafish embryos [1]): the formation of ISVs was perturbed with defective or total absence of sprouting
O=C(c1ccc(F)cc1)C1CCN(CCn2c(=O)[nH]c3ccccc3c2=O)CC1 [Ketanserin]	Bradycardia		
CS(=O)(=O)CCNCc1ccc(-c2ccc3ncnc(Nc4ccc(OCc5cccc(F)c5)c(Cl)c4)c3c2)o1 [Lapatinib]	No effect		

SMILES	Cardiac effect in humans (humans)	Angiog. inhibition (zebrafish embryos [1])	also measured
CCN(CC)CC(=O)Nc1c(C)cccc1C [Lidocaine]	Bradycardia		
CC(=O)N[C@@H](CS)C(=O)O [N-Acetyl-L-cysteine]		No	
CN1CCC[C@H]1c1cccnc1 [Nicotine]	Bradycardia		Cardiotoxic effect in zebrafish (48 hpf zebrafish embryos): Bradycardia
CCOC(=O)C1=C(C)NC(C)=C(C(=O)OC)C1c1cccc([N+](=O)[O-])c1 (stereo not drawn) [Nitrendipine]	Cardiac arrest		
Nc1nc(OCc2ccccc2)c2nc[nH]c2n1 [O6-benzylguanine]		No	
COc1cc(OC)cc(-c2cc3cnc(N)nc3nc2NC(=O)NC(C)(C)C)c1 [PD166866]		Yes	IC50 (zebrafish embryos [1]; [5]): 16 µM; IC50 (zebrafish embryos [1]; [6]): 43.9 µM; Anti-angiogenic phenotype (ISVs / DLAV) (zebrafish embryos [1]): the formation of ISVs was perturbed with defective or total absence of sprouting; also recorded: strong angiogenesis inhibition
COc1cc2nccc(Oc3ccc(NC(=S)NC(=O)c4ccccc4C)cc3)c2cc1OC [PDGFR tyr kin inhibitor V]		Yes	IC50 (zebrafish embryos [1]; [5]): 0.14 µM; IC50 (zebrafish embryos [1]; [6]): 0.19 µM; Anti-angiogenic phenotype (ISVs / DLAV) (zebrafish embryos [1]; listed as PDGFR tyrosine kinase inhibitor): the formation of ISVs was perturbed with defective or total absence of sprouting; Anti-angiogenic phenotype (ISVs / DLAV) (zebrafish embryos [1]; listed as PDGFR tyrosine kinase inhibitor V): strong angiogenesis inhibition
CC[C@@H]1C(=O)OC[C@@H]1Cc1cncn1C [Pilocarpine]	No effect		
O=c1[nH]c2ccccc2n1C1CCN(CCCC(c2ccc(F)cc2)c2ccc(F)cc2)CC1 [Pimozide]	QT-prolong.		
Cc1nc2n(c(=O)c1CCN1CCC(c3noc4cc(F)ccc34)CC1)CCCC2 [Risperidone]	QT-prolong.		
N#Cc1cc2c(OCC(O)CN3CCN(C(c4ccccc4)c4ccccc4)CC3)cccc2[nH]1 (stereo not drawn) [SDZ-201106]	QT-prolong.		Cardiotoxic effect in zebrafish (48 hpf zebrafish embryos): 2∶1 arrhythmia and type 2∶1 arrhythmias and Arrhythmia 2∶1
O=C1NCCN1CCN1CCC(c2cn(-c3ccc(F)cc3)c3ccc(Cl)cc23)CC1 [Sertindol]	QT-prolong.		
CC(C)(C)c1ccc(C(O)CCCN2CCC(C(O)(c3ccccc3)c3ccccc3)CC2)cc1 (stereo not drawn) [Terfenadine]			Concentration at which detected as potential QT-prolongation inducer (48 hpf zebrafish embryos; tested at 0.1, 1, 5, 10, 20 and 50 µM): 5 µM
CC(CC(c1ccccc1)c1ccccc1)NC(C)(C)C (stereo not drawn) [Terodiline]	QT-prolong.		Cardiotoxic effect in zebrafish (48 hpf zebrafish embryos): Arrhythmia 2∶1
C[C@]12CC[C@H]3[C@@H](CCC4=CC(=O)CC[C@@]43C)[C@@H]1CC[C@@H]2O [Testosterone]	Bradycardia		Cardiotoxic effect in zebrafish (48 hpf zebrafish embryos): Bradycardia
COc1ccc2cc(-c3nc(-c4ccc([S+](C)[O-])cc4)[nH]c3-c3ccncc3)ccc2c1 (stereo not drawn) [Tie2 Kinase inhibitor]		No	Angiog. inhibition (zebrafish embryos [1]; listed as Tie-2 kinase inhibitor): not detected
CC(C)(C)NC[C@H](O)COc1nsnc1N1CCOCC1 [Timolol]	Bradycardia		
N#C/C(=C\c1ccc(O)c(O)c1)C(=O)NCc1ccccc1 [Tyrphostin AG490]		No	
COc1cc2c(Nc3ccc(Br)cc3F)ncnc2cc1OCC1CCN(C)CC1 [ZD6474 (Vandetanib), Vandetanib]		Yes	Efective concentration (minimum concentration that showed an effect) (zebrafish embryos [1]): 100 µM; Anti-angiogenic phenotype (ISVs / DLAV) (zebrafish embryos [1]): the formation of ISVs was perturbed with defective or total absence of sprouting
O=C1Cc2cc(CCN3CCN(c4nsc5ccccc45)CC3)c(Cl)cc2N1 [Ziprasidone]	QT-prolong.		
N.N.[Cl][Pt][Cl] [cis-Diammineplatinum(II) dichloride]		No	
